Reference: patent US10857246B2, “Nuclear imaging and radiotherapeutics agents targeting carbonic anhydrase IX and uses thereof” (THE JOHNS HOPKINS UNIVERSITY, priority 2015, dated 2020)
Values joined by “and” are separate entries in the source; they are usually repeats but may differ in a detail not shown here. Equal values may be shown once.

Test system: CAIX-expressing SK-RC-52 tumors
Assay: Biodistribution in mice bearing SK-RC-52 xenografts
Type: in vivo
Conditions: for Biodistribution Kidney / Biodistribution Muscle / Biodistribution Small intestine / Tumor/Kidney ratio / Tumor/Muscle ratio / Biodistribution Bladder / Biodistribution Blood / Biodistribution Brain / Biodistribution Fat / Biodistribution Heart / Biodistribution Liver / Biodistribution Lung / Biodistribution Pancreas / Biodistribution Spleen / Biodistribution Stomach / Biodistribution Tumor / Tumor/Blood ratio: 740 kBq i.v.
Experimental: Animal experiments were performed in accordance with protocols approved by the Johns Hopkins Animal Care and Use Committee (ACUC). Six-week-old female NOD/SCID mice were purchased from the Animal Resource Core of the Sidney Kimmel Comprehensive Cancer Center of Johns Hopkins and were subcutaneously injected in the lower left flank or upper right flank with 1×10^6 SK-RC-52 cells in RPMI 1640 GlutaMAX™ media (Life Technologies, Frederick, Md.) supplemented with 1% fetal bovine serum (FBS). Mice were monitored for tumor size and used for SPECT/CT imaging when the size of the tumor reached 100 mm^3.
Mice bearing SK-RC-52 xenografts at lower left flank were injected intravenously with 740 kBq (20 μCi) of [^111In]XYIMSR-01, or [^177Lu]XYIMSR-01 in 200 μL of PBS. For competitive blocking, same tumor bearing mice were injected with 740 kBq (20 μCi) of [^111In]XYIMSR-01 and 200 nmole of 8 in 200 μL of PBS. At 1 h, 4 h, 8 h, 24 h and 48 h post-injection, mice were sacrificed by cervical dislocation and the blood was immediately collected by cardiac puncture. Heart, lungs, pancreas, spleen, fat, brain, muscle, small intestines, liver, stomach, kidney, urinary bladder, and tumor were collected. Each organ was weighed and the tissue radioactivity was measured with an automated gamma counter (1282 Compugamma CS, Pharmacia/LKBNuclear, Inc., Mt. Waverly, Vic. Australia). The percentage of injected dose per gram of tissue (% ID/g) was calculated by comparison with samples of a standard dilution of the initial dose. All measurements were corrected for radioactive decay.
Data were expressed as mean±standard deviation (SD). Prism software (GraphPAD, San Diego, Calif.) was used to determine statistical significance. Statistical significance was calculated using a paired t test. P-values <0.0001 were considered significant.
Mice bearing SK-RC-52 xenografts within the lower left flank were injected intravenously with 740 kBq (20 μCi) of [Al^18F]XYIMSR-04 in 200 μL of PBS. At specific 1 hour time point mentioned in the paper, mice (n=5) were sacrificed by cervical dislocation and the blood was immediately collected by cardiac puncture. Heart, lungs, pancreas, spleen, fat, brain, muscle, small intestines, liver, bone, stomach, kidney, urinary bladder, and tumor were collected. Each organ was weighed and the tissue radioactivity was measured with an automated gamma counter (1282 Compugamma CS, Pharmacia/LKBNuclear, Inc., Mt. Waverly, Vic. Australia). The percentage of injected dose per gram of tissue (% ID/g) was calculated by comparison with samples of a standard dilution of the initial dose. All measurements were corrected for radioactive decay. Data were expressed as mean±standard deviation (SD). Prism software (GraphPAD, San Diego, Calif.) was used to determine statistical significance. Statistical significance was calculated using a paired t test. P-values <0.0001 were considered significant.
Mice bearing SK-RC-52 xenografts within the upper right flank were injected intravenously with 740 kBq (20 μCi) of [^64Cu]XYIMSR-06 in 200 μL of PBS. For in vivo competition (binding specificity) studies, tumor-bearing mice were injected with 740 kBq (20 μCi) of [^64Cu]XYIMSR-06 and 200 nmole of 8 in 200 μL of PBS concurrently. At specific times after injection (1 h, 4 h, 8 h and 24 h), mice (n=5) were sacrificed by cervical dislocation with blood immediately collected by cardiac puncture. Heart, lungs, pancreas, spleen, fat, brain, muscle, small intestines, liver, stomach, kidney, urinary bladder, and tumor were also collected. Each organ was weighed and the tissue radioactivity was measured with an automated gamma counter (1282 Compugamma CS, Pharmacia/LKBNuclear, Inc., Mt. Waverly, Vic. Australia). The percentage of injected dose per gram of tissue (% ID/g) was calculated by comparison with samples of a standard dilution of the initial dose. All measurements were corrected for radioactive decay. Data were expressed as mean±standard deviation (SD). […]

CC(CCC(=O)N[C@@H](CC(=O)N[C@@H](CC(=O)N[C@@H](CCCCn1cc(CCCC(=O)Nc2nnc(S(N)(=O)=O)s2)nn1)C(=O)NCCOCCOCCNC(=O)CN1CCN2CCN(CC1)CC(=O)[O][Al]([18F])[O]C(=O)C2)C(=O)O)C(=O)O)(c1ccc(O)cc1)c1ccc(O)cc1 [[Al^18F]XYIMSR-04]
Biodistribution Kidney (1 h post-injection): 50.84 ± 2.65 % ID/g
Biodistribution Muscle (1 h post-injection): 1.74 ± 0.58 % ID/g
Biodistribution Small intestine (1 h post-injection): 9.59 ± 1.04 % ID/g
Tumor/Kidney ratio (1 h post-injection): 0.28 and 0.28 ± 0.03
Tumor/Muscle ratio (1 h post-injection): 9.74 and 9.74 ± 2.9

CC(CCC(=O)N[C@@H](CC(=O)N[C@@H](CC(=O)N[C@@H](CCCCn1cc(CCCC(=O)Nc2nnc(S(N)(=O)=O)s2)nn1)C(=O)NCCOCCOCCNC(=O)CN1CCN(CC(=O)[O-])CCN(CC(=O)[O-])CCN(CC(=O)[O-])CC1)C(=O)O)C(=O)O)(c1ccc(O)cc1)c1ccc(O)cc1.[111In+3] [[^111In]XYIMSR-01]
Biodistribution Bladder (1 h post-injection): 4.90 % ID/g
Biodistribution Blood (1 h post-injection): 1.34 % ID/g
Biodistribution Brain (1 h post-injection): 1.23 % ID/g
Biodistribution Fat (1 h post-injection): 1.03 % ID/g
Biodistribution Heart (1 h post-injection): 5.98 % ID/g
Biodistribution Kidney (1 h post-injection): 71.26 % ID/g
Biodistribution Liver (1 h post-injection): 8.36 % ID/g
Biodistribution Lung (1 h post-injection): 45.85 % ID/g
Biodistribution Muscle (1 h post-injection): 2.34 % ID/g
Biodistribution Pancreas (1 h post-injection): 3.81 % ID/g
Biodistribution Small intestine (1 h post-injection): 9.37 % ID/g
Biodistribution Spleen (1 h post-injection): 0.52 % ID/g
Biodistribution Stomach (1 h post-injection): 16.71 % ID/g
Biodistribution Tumor (1 h post-injection): 26 % ID/g and 26.01 % ID/g
Tumor/Kidney ratio (1 h post-injection): 0.36
Biodistribution Bladder (4 h post-injection): 2.68 % ID/g
Biodistribution Blood (4 h post-injection): 0.65 % ID/g
Biodistribution Brain (4 h post-injection): 0.45 % ID/g
Biodistribution Fat (4 h post-injection): 0.42 % ID/g
Biodistribution Heart (4 h post-injection): 2.91 % ID/g
Biodistribution Kidney (4 h post-injection): 41.52 % ID/g
Biodistribution Liver (4 h post-injection): 4.00 % ID/g
Biodistribution Lung (4 h post-injection): 17.85 % ID/g
Biodistribution Muscle (4 h post-injection): 1.01 % ID/g
Biodistribution Pancreas (4 h post-injection): 1.54 % ID/g
Biodistribution Small intestine (4 h post-injection): 4.27 % ID/g
Biodistribution Spleen (4 h post-injection): 0.51 % ID/g
Biodistribution Stomach (4 h post-injection): 7.91 % ID/g
Biodistribution Tumor (4 h post-injection): 20.83 % ID/g
Tumor/Blood ratio (4 h post-injection): 31.9
Tumor/Kidney ratio (4 h post-injection): 0.50
Tumor/Muscle ratio (4 h post-injection): 21.4
Biodistribution Bladder (8 h post-injection): 2.28 % ID/g
Biodistribution Blood (8 h post-injection): 0.48 % ID/g
Biodistribution Brain (8 h post-injection): 0.59 % ID/g
Biodistribution Fat (8 h post-injection): 0.45 % ID/g
Biodistribution Heart (8 h post-injection): 2.61 % ID/g
Biodistribution Kidney (8 h post-injection): 28.79 % ID/g
Biodistribution Liver (8 h post-injection): 3.65 % ID/g
Biodistribution Lung (8 h post-injection): 17.39 % ID/g
Biodistribution Muscle (8 h post-injection): 1.09 % ID/g
Biodistribution Pancreas (8 h post-injection): 1.61 % ID/g
Biodistribution Small intestine (8 h post-injection): 4.31 % ID/g
Biodistribution Spleen (8 h post-injection): 0.64 % ID/g
Biodistribution Stomach (8 h post-injection): 8.74 % ID/g
Biodistribution Tumor (8 h post-injection): 34.0 % ID/g
Tumor/Blood ratio (8 h post-injection): 77.0
Tumor/Kidney ratio (8 h post-injection): 3.1
Tumor/Muscle ratio (8 h post-injection): 34.2
All other tumor/organ ratios (24 h): ≥ 10
Biodistribution Bladder (24 h + block (200 nmole of 8)): 0.20 % ID/g
Biodistribution Blood (24 h + block (200 nmole of 8)): 0.03 % ID/g
Biodistribution Brain (24 h + block (200 nmole of 8)): 0.03 % ID/g
Biodistribution Fat (24 h + block (200 nmole of 8)): 0.02 % ID/g
Biodistribution Heart (24 h + block (200 nmole of 8)): 0.04 % ID/g
Biodistribution Kidney (24 h + block (200 nmole of 8)): 0.68 % ID/g
Biodistribution Liver (24 h + block (200 nmole of 8)): 0.10 % ID/g
Biodistribution Lung (24 h + block (200 nmole of 8)): 0.12 % ID/g
Biodistribution Muscle (24 h + block (200 nmole of 8)): 0.02 % ID/g
Biodistribution Pancreas (24 h + block (200 nmole of 8)): 0.03 % ID/g
Biodistribution Small intestine (24 h + block (200 nmole of 8)): 0.08 % ID/g
Biodistribution Spleen (24 h + block (200 nmole of 8)): 0.08 % ID/g
Biodistribution Stomach (24 h + block (200 nmole of 8)): 0.14 % ID/g
Biodistribution Tumor (24 h + block (200 nmole of 8)): 1.41 % ID/g
Tumor/Blood ratio (24 h + block (200 nmole of 8)): 45.2
Tumor/Kidney ratio (24 h + block (200 nmole of 8)): 2.1
Tumor/Muscle ratio (24 h + block (200 nmole of 8)): 91.4
Uptake to tumors with simultaneously injected non-radioactive competitor 8 (24 h and 48 h post injection): ~1%
Biodistribution Bladder (24 h post-injection): 0.74 % ID/g
Biodistribution Blood (24 h post-injection): 0.15 % ID/g
Biodistribution Brain (24 h post-injection): 0.71 % ID/g
Biodistribution Fat (24 h post-injection): 0.28 % ID/g
Biodistribution Heart (24 h post-injection): 1.16 % ID/g
Biodistribution Kidney (24 h post-injection): 15.29 % ID/g
Biodistribution Liver (24 h post-injection): 3.02 % ID/g
Biodistribution Lung (24 h post-injection): 11.01 % ID/g
Biodistribution Muscle (24 h post-injection): 0.35 % ID/g
Biodistribution Pancreas (24 h post-injection): 0.69 % ID/g
Biodistribution Small intestine (24 h post-injection): 2.11 % ID/g
Biodistribution Spleen (24 h post-injection): 0.69 % ID/g
Biodistribution Stomach (24 h post-injection): 3.31 % ID/g
Biodistribution Tumor (24 h post-injection): 25.62 % ID/g
Biodistribution Bladder (48 h + block (200 nmole of 8)): 0.14 % ID/g
Biodistribution Blood (48 h + block (200 nmole of 8)): 0.03 % ID/g
Biodistribution Brain (48 h + block (200 nmole of 8)): 0.03 % ID/g
Biodistribution Fat (48 h + block (200 nmole of 8)): 0.03 % ID/g
Biodistribution Heart (48 h + block (200 nmole of 8)): 0.04 % ID/g
Biodistribution Kidney (48 h + block (200 nmole of 8)): 0.45 % ID/g
Biodistribution Liver (48 h + block (200 nmole of 8)): 0.13 % ID/g
Biodistribution Lung (48 h + block (200 nmole of 8)): 0.09 % ID/g
Biodistribution Muscle (48 h + block (200 nmole of 8)): 0.02 % ID/g
Biodistribution Pancreas (48 h + block (200 nmole of 8)): 0.03 % ID/g
Biodistribution Small intestine (48 h + block (200 nmole of 8)): 0.08 % ID/g
Biodistribution Spleen (48 h + block (200 nmole of 8)): 0.11 % ID/g
Biodistribution Stomach (48 h + block (200 nmole of 8)): 0.14 % ID/g
Biodistribution Tumor (48 h + block (200 nmole of 8)): 1.22 % ID/g
Tumor/Blood ratio (48 h + block (200 nmole of 8)): 45.4
Tumor/Kidney ratio (48 h + block (200 nmole of 8)): 2.7
Tumor/Muscle ratio (48 h + block (200 nmole of 8)): 75.1
Biodistribution Bladder (48 h post-injection): 0.38 % ID/g
Biodistribution Blood (48 h post-injection): 0.06 % ID/g
Biodistribution Brain (48 h post-injection): 0.41 % ID/g
Biodistribution Fat (48 h post-injection): 0.25 % ID/g
Biodistribution Heart (48 h post-injection): 0.84 % ID/g
Biodistribution Kidney (48 h post-injection): 8.78 % ID/g
Biodistribution Liver (48 h post-injection): 1.65 % ID/g
Biodistribution Lung (48 h post-injection): 9.22 % ID/g
Biodistribution Muscle (48 h post-injection): 0.39 % ID/g
Biodistribution Pancreas (48 h post-injection): 0.59 % ID/g
Biodistribution Small intestine (48 h post-injection): 1.22 % ID/g
Biodistribution Spleen (48 h post-injection): 0.67 % ID/g
Biodistribution Stomach (48 h post-injection): 1.82 % ID/g
Biodistribution Tumor (48 h post-injection): 13.92 % ID/g
Tumor/Blood ratio (48 h post-injection): 212.0
Tumor/Kidney ratio (48 h post-injection): 1.5
Tumor/Muscle ratio (48 h post-injection): 52.0
